Data: patent US20160229835A1, “NOVEL PYRIDYLOXYACETYL TETRAHYDROISOQUINOLINE COMPOUNDS USEFUL AS NAMPT INHIBITORS” (ELI LILLY AND COMPANY, priority 2013, published 2016)

Tested on: A2780 Cancer Cells
Test: LC-MS Analysis of NAD+ and Carbohydrate Metabolites in A2780 Cancer Cells
Format: cell-based
Conditions: A2780 cells, 24 hours
Method: The purpose of this assay is to measure effects of NAMPT inhibitors on NAD^+ formation in cancer cells. LC-MS analysis of NAD^+ metabolites: nicotinamide mononucleotide (NMN), NAD^+, reduced nicotinamide adenine dinucleotide (NADH), and nicotinamide adenine dinucleotide phosphate (NADP) is performed on an HPLC system coupled to a Thermo Quantum Ultra triple quadrupole mass spectrometer operated in positive heated electrospray mode with selected reaction monitoring detection. For cell extracts, 50 μL of extract and 10 μL of 10 μM internal standard (IS) solution is transferred to a 96-well plate, dried under nitrogen and reconstituted in 50 μL of water. For tissue extracts, 20 μL of extract and 10 μL of IS solution are dried and reconstituted in 50 μL water. The IS solution contains 10 μM nicotinamide-d4 (C/D/N Isotopes), nicotinic acid-d4 (C/D/N Isotopes), nicotinamide mononucleotide-d4 (prepared by custom synthesis) and nicotinamide 1,N^6-ethenoadenine dinucleotide in methanol. The metabolites are separated on a Waters XBRIDGE™ Amide (2.1×50 mm, 3 μm) with an injection volume of 10 μL and a flow rate of 1 mL/minute using 10 mM ammonium acetate in 95% acetonitrile for mobile phase A and 10 mM ammonium acetate in 50% acetonitrile for mobile phase B. The gradient is as follows: 0 minutes, 0% B; 2.5 minutes, 70% B; 2.51 minutes, 100% B; 2.8 minutes, 100% B; 2.81 minutes, 0% B, 3.6 minutes, 0% B.
The purpose of this assay is to measure effects of NAMPT inhibitors on the levels of metabolites such as glucose-6-phosphate/fructose-6-phosphate/fructose-1-phosphate collectively as hexose phosphate (HP), fructose-1,6-bisphosphate (FBP), glyceraldehyde-3-phosphate (G3P), dihydroxyacetone phosphate (DHAP), 3-phosphoglycerate (3PG), 2-phosphoglycerate (2PG), phosphoenoylpyruvate (PEP), gluconate-6-phosphate (GN6P), xylulose-5-phosphate (X5P), ribulose-5-phosphate (Ru5P), ribose-5-phosphate (R5P), sedoheptulose-7-phosphate/sedoheptulose-1-phosphate collectively as sedoheptulose phosphate (SP), erythrose-4-phosphate (E4P), and α-ketoglutarate (α-KG) derived from glycolysis, the TCA cycle, and the pentose-phosphate pathway in tumor cells. Cells (50,000/well) are grown as described above in 100 μL of Dulbecco's Modified Eagle Medium supplemented with 10% FBS (dialyzed) and 25 mM glucose, and treated with a compound in triplicates in the presence or absence of 10 μM nicotinic acid. After 24 hours of treatment, the growth medium is removed and 200 μL of 80% methanol is added to each well. After incubation at room temperature for 15 minutes, the resulting extracts are transferred to 96-deep-well plates and washed twice with 200 μL of 80% methanol/water. Then, the plates are heat sealed and stored at −80° C., or dried and reconstituted in 100 μL of 25 μM ethylenediaminetetraacetic acid and injected into LC-MS for analysis.
The LC-MS analysis for carbohydrate metabolites is performed as follows. Chromatographic separations are performed with an HPLC system, which is coupled to an AB Sciex triple quadrupole LC-MS mass spectrometer. Analytes with phosphates are analyzed as follows. The samples are dried and reconstituted in ACN/water solutions and are separated on a Phenomenex Luna amino HPLC column (2.1×30 mm 3 μm) under the conditions as described by Yuan et al. (Nature Protocols, 2012, […], 872-881.). The mass spectrometer is operated under negative ESI MRM mode.

COCCS(=O)(=O)Nc1ccc2c(c1)CCN(C(=O)COc1cccnc1)C2 [Example 2, 2-Methoxy-N-[2-[2-(3-pyridyloxy)acetyl]-3,4-dihydro-1H-isoquinolin-6-yl]ethanesulfonamide]
Metabolite Levels (μM) DHAP (compound 0.000508 μM): 0.5 µM
Metabolite Levels (μM) FBP (compound 0.000508 μM): 1.4 µM
Metabolite Levels (μM) HP (compound 0.000508 μM): 1.6 µM
Metabolite Levels (μM) NAD (compound 0.000508 μM): 0.527 µM
Metabolite Levels (μM) SP (compound 0.000508 μM): 0.2 µM
Metabolite Levels (μM) DHAP (compound 0.00152 μM): 0.9 µM
Metabolite Levels (μM) FBP (compound 0.00152 μM): 1.8 µM
Metabolite Levels (μM) HP (compound 0.00152 μM): 1.6 µM
Metabolite Levels (μM) NAD (compound 0.00152 μM): 0.457 µM
Metabolite Levels (μM) SP (compound 0.00152 μM): 0.2 µM
Metabolite Levels (μM) DHAP (compound 0.00457 μM): 3.2 µM
Metabolite Levels (μM) FBP (compound 0.00457 μM): 2.2 µM
Metabolite Levels (μM) HP (compound 0.00457 μM): 1.6 µM
Metabolite Levels (μM) NAD (compound 0.00457 μM): 0.255 µM
Metabolite Levels (μM) SP (compound 0.00457 μM): 0.2 µM
Metabolite Levels (μM) DHAP (compound 0.0137 μM): 6.3 µM
Metabolite Levels (μM) FBP (compound 0.0137 μM): 3.2 µM
Metabolite Levels (μM) HP (compound 0.0137 μM): 1.9 µM
Metabolite Levels (μM) NAD (compound 0.0137 μM): 0.087 µM
Metabolite Levels (μM) SP (compound 0.0137 μM): 0.3 µM
Metabolite Levels (μM) DHAP (compound 0.0412 μM): 6.5 µM
Metabolite Levels (μM) FBP (compound 0.0412 μM): 6.4 µM
Metabolite Levels (μM) HP (compound 0.0412 μM): 2.8 µM
Metabolite Levels (μM) NAD (compound 0.0412 μM): 0.039 µM
Metabolite Levels (μM) SP (compound 0.0412 μM): 0.5 µM
Metabolite Levels (μM) DHAP (compound 0.123 μM): 7.1 µM
Metabolite Levels (μM) FBP (compound 0.123 μM): 15.5 µM
Metabolite Levels (μM) HP (compound 0.123 μM): 7.2 µM
Metabolite Levels (μM) NAD (compound 0.123 μM): 0.023 µM
Metabolite Levels (μM) SP (compound 0.123 μM): 1.3 µM
Metabolite Levels (μM) DHAP (compound 0.37 μM): 7.1 µM
Metabolite Levels (μM) FBP (compound 0.37 μM): 22.8 µM
Metabolite Levels (μM) HP (compound 0.37 μM): 11.0 µM
Metabolite Levels (μM) NAD (compound 0.37 μM): 0.022 µM
Metabolite Levels (μM) SP (compound 0.37 μM): 2.2 µM
Metabolite Levels (μM) DHAP (compound 1.111 μM): 7.3 µM
Metabolite Levels (μM) FBP (compound 1.111 μM): 24.1 µM
Metabolite Levels (μM) HP (compound 1.111 μM): 11.8 µM
Metabolite Levels (μM) NAD (compound 1.111 μM): 0.017 µM
Metabolite Levels (μM) SP (compound 1.111 μM): 2.5 µM
Metabolite Levels (μM) DHAP (compound 3.333 μM): 7.6 µM
Metabolite Levels (μM) FBP (compound 3.333 μM): 23.4 µM
Metabolite Levels (μM) HP (compound 3.333 μM): 12.8 µM
Metabolite Levels (μM) NAD (compound 3.333 μM): 0.02 µM
Metabolite Levels (μM) SP (compound 3.333 μM): 2.5 µM
Metabolite Levels (μM) DHAP (compound 10 μM): 7.7 µM
Metabolite Levels (μM) FBP (compound 10 μM): 21.5 µM
Metabolite Levels (μM) HP (compound 10 μM): 10.9 µM
Metabolite Levels (μM) NAD (compound 10 μM): 0.02 µM
Metabolite Levels (μM) SP (compound 10 μM): 2.1 µM
